Data: ChEMBL document CHEMBL1153513, “Sildenafil is a strong activator of mammalian carbonic anhydrase isoforms I-XIV” (Bioorg Med Chem, 2009)

Columns and labels:
[1] = target: Carbonic anhydrase 6 (Homo sapiens) (UniProt P23280); experiment: Activation of human recombinant carbonic anhydrase 6 by stopped flow CO2 hydration method
[2] = target: Carbonic anhydrase 9 (Homo sapiens) (UniProt Q16790); experiment: Activation of human recombinant carbonic anhydrase 9 catalytic domain by stopped flow CO2 hydration method
[3] = target: Carbonic anhydrase 4 (Homo sapiens) (UniProt P22748); experiment: Activation of human recombinant carbonic anhydrase 4 by stopped flow CO2 hydration method
Rattus norvegicus [4] = experiment: Activation of carbonic anhydrase in Sprague-Dawley rat red blood cells at 1 mg/kg, po after 1 hr by colorimetry relative to control; type: functional
[5] = target: Carbonic anhydrase 7 (Homo sapiens) (UniProt P43166); experiment: Activation of human recombinant carbonic anhydrase 7 by stopped flow CO2 hydration method
Rattus norvegicus [6] = experiment: Activation of carbonic anhydrase in Sprague-Dawley rat red blood cells at 1 mg/kg, po after 5 hrs by colorimetry relative to control; type: functional
[7] = target: Carbonic anhydrase 2 (Homo sapiens) (UniProt P00918); experiment: Activation of human recombinant carbonic anhydrase 2 by stopped flow CO2 hydration method
[8] = target: Carbonic anhydrase 1 (Homo sapiens) (UniProt P00915); experiment: Activation of human recombinant carbonic anhydrase 1 by stopped flow CO2 hydration method
[9] = target: Carbonic anhydrase 14 (Homo sapiens) (UniProt Q9ULX7); experiment: Activation of human recombinant carbonic anhydrase 14 by stopped flow CO2 hydration method
Rattus norvegicus [10] = experiment: Activation of carbonic anhydrase in Sprague-Dawley rat red blood cells at 1 mg/kg, po after 3 hrs by colorimetry relative to control; type: functional
[11] = target: Carbonic anhydrase 13 (Mus musculus) (UniProt Q9D6N1); experiment: Activation of mouse recombinant carbonic anhydrase 13 by stopped flow CO2 hydration method
[12] = target: Carbonic anhydrase 5A, mitochondrial (Homo sapiens) (UniProt P35218); experiment: Activation of human recombinant carbonic anhydrase 5A by stopped flow CO2 hydration method
[13] = target: Carbonic anhydrase 12 (Homo sapiens) (UniProt O43570); experiment: Activation of human recombinant carbonic anhydrase 12 catalytic domain by stopped flow CO2 hydration method
[14] = target: Carbonic anhydrase 3 (Homo sapiens) (UniProt P07451); experiment: Activation of human recombinant carbonic anhydrase 3 by stopped flow CO2 hydration method
[15] = Half life in po dosed human plasma; type: ADME, organism-based
[16] = target: Carbonic anhydrase 5B, mitochondrial (Homo sapiens) (UniProt Q9Y2D0); experiment: Activation of human recombinant carbonic anhydrase 5B by stopped flow CO2 hydration method
Carbonic anhydrase 5B, mitochondrial (Homo sapiens), sequence (Q9Y2D0 whole entry): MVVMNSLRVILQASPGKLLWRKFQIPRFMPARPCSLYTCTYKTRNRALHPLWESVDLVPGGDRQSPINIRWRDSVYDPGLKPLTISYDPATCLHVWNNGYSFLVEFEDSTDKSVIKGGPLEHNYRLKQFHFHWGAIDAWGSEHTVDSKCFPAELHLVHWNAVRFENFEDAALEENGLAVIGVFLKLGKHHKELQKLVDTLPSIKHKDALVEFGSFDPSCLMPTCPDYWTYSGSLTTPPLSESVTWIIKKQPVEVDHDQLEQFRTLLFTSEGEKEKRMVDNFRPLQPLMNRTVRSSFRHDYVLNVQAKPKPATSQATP

Carbonic anhydrase 6 (Homo sapiens), sequence (P23280 whole entry, the tested form may be a part): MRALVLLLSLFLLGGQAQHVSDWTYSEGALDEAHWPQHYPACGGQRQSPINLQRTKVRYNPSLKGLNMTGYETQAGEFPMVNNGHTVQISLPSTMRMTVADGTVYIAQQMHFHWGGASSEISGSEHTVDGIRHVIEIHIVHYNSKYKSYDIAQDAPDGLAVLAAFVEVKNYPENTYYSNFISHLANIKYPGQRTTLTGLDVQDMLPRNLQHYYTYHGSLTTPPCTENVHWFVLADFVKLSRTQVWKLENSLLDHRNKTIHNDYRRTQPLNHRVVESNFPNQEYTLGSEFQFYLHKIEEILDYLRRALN
Carbonic anhydrase 3 (Homo sapiens), sequence (P07451 whole entry): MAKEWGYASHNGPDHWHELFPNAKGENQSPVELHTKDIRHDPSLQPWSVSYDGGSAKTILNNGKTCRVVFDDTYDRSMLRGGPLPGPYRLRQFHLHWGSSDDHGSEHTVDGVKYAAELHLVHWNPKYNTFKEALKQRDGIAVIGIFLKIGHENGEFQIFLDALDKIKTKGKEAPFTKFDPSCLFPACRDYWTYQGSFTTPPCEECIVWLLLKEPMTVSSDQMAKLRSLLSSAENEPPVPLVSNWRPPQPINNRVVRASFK
Carbonic anhydrase 4 (Homo sapiens), sequence (P22748 whole entry): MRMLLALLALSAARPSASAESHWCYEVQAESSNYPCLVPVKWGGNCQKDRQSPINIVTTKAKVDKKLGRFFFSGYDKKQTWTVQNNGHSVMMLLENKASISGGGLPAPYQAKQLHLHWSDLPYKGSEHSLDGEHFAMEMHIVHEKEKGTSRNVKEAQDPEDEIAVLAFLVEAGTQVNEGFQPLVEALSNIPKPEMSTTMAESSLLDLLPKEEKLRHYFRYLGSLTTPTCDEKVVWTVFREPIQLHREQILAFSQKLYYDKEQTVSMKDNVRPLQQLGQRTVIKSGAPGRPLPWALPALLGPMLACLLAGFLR
Carbonic anhydrase 7 (Homo sapiens), sequence (P43166 whole entry): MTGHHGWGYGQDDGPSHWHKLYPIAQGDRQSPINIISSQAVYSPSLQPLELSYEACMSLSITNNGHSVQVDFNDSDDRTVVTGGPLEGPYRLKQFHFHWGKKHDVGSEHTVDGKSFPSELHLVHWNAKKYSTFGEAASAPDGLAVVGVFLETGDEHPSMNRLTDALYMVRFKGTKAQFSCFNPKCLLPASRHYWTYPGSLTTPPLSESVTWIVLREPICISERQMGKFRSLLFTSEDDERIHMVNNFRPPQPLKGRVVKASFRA
Carbonic anhydrase 12 (Homo sapiens), sequence (O43570 whole entry, the tested form may be a part): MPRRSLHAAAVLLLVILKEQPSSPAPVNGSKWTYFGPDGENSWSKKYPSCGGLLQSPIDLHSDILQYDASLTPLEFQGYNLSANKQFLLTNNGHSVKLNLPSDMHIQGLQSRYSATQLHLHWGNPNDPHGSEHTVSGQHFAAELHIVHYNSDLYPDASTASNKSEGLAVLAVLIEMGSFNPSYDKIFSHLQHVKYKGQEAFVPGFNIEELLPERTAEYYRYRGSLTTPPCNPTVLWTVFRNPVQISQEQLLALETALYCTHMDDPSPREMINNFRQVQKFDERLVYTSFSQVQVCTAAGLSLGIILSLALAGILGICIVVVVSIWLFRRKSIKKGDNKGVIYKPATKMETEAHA
Carbonic anhydrase 13 (Mus musculus), sequence (Q9D6N1 whole entry, looked up): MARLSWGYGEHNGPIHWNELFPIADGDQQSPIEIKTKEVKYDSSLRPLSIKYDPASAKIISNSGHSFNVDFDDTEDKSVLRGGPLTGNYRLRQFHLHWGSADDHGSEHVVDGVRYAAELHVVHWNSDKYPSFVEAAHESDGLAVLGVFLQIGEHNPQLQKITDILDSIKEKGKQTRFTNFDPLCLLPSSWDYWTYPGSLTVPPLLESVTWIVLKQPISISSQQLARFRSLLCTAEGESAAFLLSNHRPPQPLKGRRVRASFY
Carbonic anhydrase 5A, mitochondrial (Homo sapiens), sequence (P35218 whole entry, the tested form may be a part): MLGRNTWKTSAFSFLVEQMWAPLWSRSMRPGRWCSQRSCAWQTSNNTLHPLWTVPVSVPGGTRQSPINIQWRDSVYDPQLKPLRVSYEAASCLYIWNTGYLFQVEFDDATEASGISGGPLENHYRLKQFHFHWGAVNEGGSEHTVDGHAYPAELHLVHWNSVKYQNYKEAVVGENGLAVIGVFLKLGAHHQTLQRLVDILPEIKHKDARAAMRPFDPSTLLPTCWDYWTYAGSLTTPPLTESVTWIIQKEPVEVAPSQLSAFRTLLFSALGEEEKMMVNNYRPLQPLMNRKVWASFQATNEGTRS
Carbonic anhydrase 14 (Homo sapiens), sequence (Q9ULX7 whole entry): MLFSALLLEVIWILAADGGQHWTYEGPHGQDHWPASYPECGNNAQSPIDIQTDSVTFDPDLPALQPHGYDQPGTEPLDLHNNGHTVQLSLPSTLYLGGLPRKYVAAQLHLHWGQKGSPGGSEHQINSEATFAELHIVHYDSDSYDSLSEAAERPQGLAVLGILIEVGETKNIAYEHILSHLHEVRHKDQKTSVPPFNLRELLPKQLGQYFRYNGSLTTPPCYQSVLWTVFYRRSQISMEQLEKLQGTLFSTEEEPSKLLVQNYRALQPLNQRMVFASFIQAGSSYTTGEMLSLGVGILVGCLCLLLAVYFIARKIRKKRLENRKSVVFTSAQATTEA
Carbonic anhydrase 1 (Homo sapiens), sequence (P00915 2-261 limits assumed): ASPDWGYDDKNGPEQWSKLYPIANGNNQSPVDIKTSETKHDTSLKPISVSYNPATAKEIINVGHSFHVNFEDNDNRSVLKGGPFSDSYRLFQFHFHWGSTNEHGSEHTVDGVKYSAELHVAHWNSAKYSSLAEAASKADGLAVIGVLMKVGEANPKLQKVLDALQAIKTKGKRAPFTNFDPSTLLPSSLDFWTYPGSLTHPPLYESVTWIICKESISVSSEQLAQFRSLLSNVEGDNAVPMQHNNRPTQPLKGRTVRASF

SMILES	KA [1]	KA [2]	KA [3]	Activity (Rattus norvegicus [4])	KA [5]	Activity (Rattus norvegicus [6])	KA [7]	KA [8]	KA [9]	Activity (Rattus norvegicus [10])	KA [11]	KA [12]	KA [13]	KA [14]	half-life [15]	KA [16]
NCCN1CCNCC1	9.54 µM															
NCCc1c[nH]cn1	6.5 µM															
CCCc1nn(C)c2c(=O)[nH]c(-c3cc(S(=O)(=O)N4CCN(C)CC4)ccc3OCC)nc12.O=C(O)CC(O)(CC(=O)O)C(=O)O [SILDENAFIL CITRATE]	2.37 µM	34 µM	15.2 µM	84.47%	72.9 µM	79.19%	31.3 µM	1.08 µM	32.4 µM	59.6%	27.5 µM	16.8 µM	73 µM	13.4 µM	240 min	6.54 µM
